Laboratory results: patent publication US8372991B2, “Trisubstituted thiophenes that modulate intracellular calcium” (Calcimedica, Inc., priority 2008, dated 2013)

system: JR251 or RBL cells; assay: Store-operated calcium entry IC50 in either JR251 or RBL cells; assay type: cell-based
Experimental: The day prior to performing the assay Orai1/STIM1 stable cells were plated in 50 μL of complete medium at 90-95% confluence in a 384 well plate. Cells were grown at 37° C./6% CO2 overnight. On the day of the assay, 1.5 μM fluo-4-AM (Invitrogen) in complete medium was added to the cells, which were then incubated for 1 hour at RT. Cells were washed once in Ca^2+-free HBSS (Hank's buffered saline solution) and 35 μl of Ca^2+-free HBSS was added to each well. Test compounds were added to wells in a 10 μL Ca^2+-free HBSS solution, prepared at 4.5× the desired final concentration, and incubated for 30 minutes at RT. The initial baseline fluorescence signal was then measured with a FLIPR^384 (Molecular Devices) plate reader. Calcium entry was initiated by adding 5 μl of 10× CaCl2 (10 mM) in HBSS, and changes in cellular fluorescence were measured with the FLIPR^384 plate reader. In each well, the magnitude of the fluorescence signal as a result of calcium entry into the cell was determined by calculating the difference between the peak fluorescence signal measured after calcium addition and the initial baseline fluorescence signal (designated Peak-Basal). IC50 values were typically calculated as the concentration that inhibited 50% of the Peak-Basal signal (Table A).
The day prior to performing the assay, RBL-2H3 cells are plated in 50 μL of complete medium in a 384 well plate. Cells are grown at 37° C./6% CO2 overnight and grow to 50-60% confluence by the next day. On the assay day, 1.5 μM Fluo-4-AM dye (Invitrogen) in complete medium is added and incubated for 1 hour at RT. Cells are washed twice in Ca^2+-free HBSS buffer and 35 μL Ca^2+-free HBSS buffer is added to each well. 10 μL of a test compound prepared in a Ca^2+-free HBSS solution at 4.5× of the desired concentration is added to a well and incubated for 5 minutes at RT. 10 μL of thapsigargin prepared in a Ca^2+-free HBSS solution at 5.5× of the desired concentration (5.5 uM) is added to each well and incubated for an additional 25 minutes. The initial baseline fluorescence signal is measured with a FLIPR^384 (Molecular Devices) plate reader. 5 μL of 12× calcium in HBSS (12 mM) is added and changes in cellular fluorescence are measured with the FLIPR^384 plate reader. In each well, the change in the fluorescent signal as a function of time due to calcium entry into the cell is determined by calculating the difference between the fluorescent signal measured 7 seconds after calcium addition and the initial baseline fluorescence signal at time zero (t=0). This parameter is designated Upslope. The IC50 value is calculated as the concentration at which 50% of the Upslope is inhibited.

IC50 [µM]	Structure (SMILES)
< 10	O=C(Nc1scc(-c2c[nH]c3ccccc23)c1C(=O)O)c1cccc(F)c1 [2-(3-fluorobenzamido)-4-(1H-indol-3-yl)thiophene-3-carboxylic acid]
< 10	Cc1nc(N2CCCCC2)ncc1-c1csc(NC(=O)c2cccc(F)c2)c1C(=O)O [2-(3-fluorobenzamido)-4-(4-methyl-2-(piperidin-1-yl)pyrimidin-5-yl)thiophene-3-carboxylic acid]
< 10	Cc1csc(-c2csc(NC(=O)c3cccc(F)c3)c2C(=O)O)n1 [2-(3-fluorobenzamido)-4-(4-methylthiazol-2-yl)thiophene-3-carboxylic acid]
< 10	COc1ccc(-c2csc(NC(=O)c3cccc(F)c3)c2C(=O)O)cn1 [2-(3-fluorobenzamido)-4-(6-methoxypyridin-3-yl)thiophene-3-carboxylic acid]
< 10	O=C(Nc1scc(-c2cnccn2)c1C(=O)O)c1cccc(F)c1 [2-(3-fluorobenzamido)-4-(pyrazin-2-yl)thiophene-3-carboxylic acid]
< 10	O=C(Nc1scc(-c2ncco2)c1C(=O)O)c1ccc(F)cc1 [2-(4-fluorobenzamido)-4-(oxazol-2-yl)thiophene-3-carboxylic acid]
< 10	Cc1nc(N2CCCCC2)ncc1-c1csc(NC(=O)c2snnc2C)c1C(=O)O [2-(4-methyl-1,2,3-thiadiazole-5-carboxamido)-4-(4-methyl-2-(piperidin-1-yl)pyrimidin-5-yl)thiophene-3-carboxylic acid]
< 10	Cc1nnsc1C(=O)Nc1scc(-c2cnccn2)c1C(=O)O [2-(4-methyl-1,2,3-thiadiazole-5-carboxamido)-4-(pyrazin-2-yl)thiophene-3-carboxylic acid]
< 10	Cc1cc(-c2csc(NC(=O)c3cnn(C)c3Cl)c2C(=O)O)n(C)n1 [2-(5-chloro-1-methyl-1H-pyrazole-4-carboxamido)-4-(1,3-dimethyl-1H-pyrazol-5-yl)thiophene-3-carboxylic acid]
< 10	Cn1ncc(C(=O)Nc2scc(-c3cnn(-c4ccc(Cl)cc4)c3)c2C(=O)O)c1Cl [2-(5-chloro-1-methyl-1H-pyrazole-4-carboxamido)-4-(1-(4-chlorophenyl)-1H-pyrazol-4-yl)thiophene-3-carboxylic acid]
< 10	Cc1nc(N2CCCCC2)ncc1-c1csc(NC(=O)c2cnn(C)c2Cl)c1C(=O)O [2-(5-chloro-1-methyl-1H-pyrazole-4-carboxamido)-4-(4-methyl-2-(piperidin-1-yl)pyrimidin-5-yl)thiophene-3-carboxylic acid]
< 10	Cc1ccc(-c2csc(NC(=O)c3nc4ccccc4o3)c2C(=O)O)c2ccccc12 [2-(benzo[d]oxazole-2-carboxamido)-4-(4-methylnaphthalen-1-yl)thiophene-3-carboxylic acid]
< 10	O=C(Nc1scc(-c2ccc3ccccc3c2)c1C(=O)O)c1nc2ccccc2o1 [2-(benzo[d]oxazole-2-carboxamido)-4-(naphthalen-2-yl)thiophene-3-carboxylic acid]
< 10	O=C(Nc1scc(-c2nc3ccccc3n2C(F)F)c1C(=O)O)c1cc2ccccc2o1 [2-(benzofuran-2-carboxamido)-4-(1-(difluoromethyl)-1H-benzo[d]imidazol-2-yl)thiophene-3-carboxylic acid]
< 10	Cn1ccc2cc(-c3csc(NC(=O)c4cc5ccccc5o4)c3C(=O)O)ccc21 [2-(benzofuran-2-carboxamido)-4-(1-methyl-1H-indol-5-yl)thiophene-3-carboxylic acid]
< 10	Cn1nc(C(F)(F)F)cc1-c1csc(NC(=O)c2cc3ccccc3o2)c1C(=O)O [2-(benzofuran-2-carboxamido)-4-(1-methyl-3-(trifluoromethyl)-1H-pyrazol-5-yl)thiophene-3-carboxylic acid]
< 10	O=C(Nc1scc(-c2c[nH]c3ccccc23)c1C(=O)O)c1cc2ccccc2o1 [2-(benzofuran-2-carboxamido)-4-(1H-indol-3-yl)thiophene-3-carboxylic acid]
< 10	O=C(Nc1scc(-c2cnc3[nH]ccc3c2)c1C(=O)O)c1cc2ccccc2o1 [2-(benzofuran-2-carboxamido)-4-(1H-pyrrolo[2,3-b]pyridin-5-yl)thiophene-3-carboxylic acid]

IC50 [µM]	Structure (SMILES)
< 10	Cc1nc(C)c(-c2csc(NC(=O)c3cc4ccccc4o3)c2C(=O)O)s1 [2-(benzofuran-2-carboxamido)-4-(2,4-dimethylthiazol-5-yl)thiophene-3-carboxylic acid]
< 10	O=C(Nc1scc(-c2ccc(F)nc2F)c1C(=O)O)c1cc2ccccc2o1 [2-(benzofuran-2-carboxamido)-4-(2,6-difluoropyridin-3-yl)thiophene-3-carboxylic acid]
< 10	O=C(Nc1scc(-c2cnc(C(F)(F)F)nc2)c1C(=O)O)c1cc2ccccc2o1 [2-(benzofuran-2-carboxamido)-4-(2-(trifluoromethyl)pyrimidin-5-yl)thiophene-3-carboxylic acid]
< 10	O=C(Nc1scc(-c2ccnc(F)c2)c1C(=O)O)c1cc2ccccc2o1 [2-(benzofuran-2-carboxamido)-4-(2-fluoropyridin-4-yl)thiophene-3-carboxylic acid]
< 10	Cc1ccc(-c2csc(NC(=O)c3cc4ccccc4o3)c2C(=O)O)c2ccccc12 [2-(benzofuran-2-carboxamido)-4-(4-methylnaphthalen-1-yl)thiophene-3-carboxylic acid]
< 10	Cc1csc(-c2csc(NC(=O)c3cc4ccccc4o3)c2C(=O)O)n1 [2-(benzofuran-2-carboxamido)-4-(4-methylthiazol-2-yl)thiophene-3-carboxylic acid]
< 10	CCOc1ccc(-c2csc(NC(=O)c3cc4ccccc4o3)c2C(=O)O)cn1 [2-(benzofuran-2-carboxamido)-4-(6-ethoxypyridin-3-yl)thiophene-3-carboxylic acid]
< 10	O=C(Nc1scc(-c2ccc(F)nc2)c1C(=O)O)c1cc2ccccc2o1 [2-(benzofuran-2-carboxamido)-4-(6-fluoropyridin-3-yl)thiophene-3-carboxylic acid]
< 10	COc1ccc(-c2csc(NC(=O)c3cc4ccccc4o3)c2C(=O)O)cn1 [2-(benzofuran-2-carboxamido)-4-(6-methoxypyridin-3-yl)thiophene-3-carboxylic acid]
< 10	Cc1ccc(-c2csc(NC(=O)c3cc4ccccc4o3)c2C(=O)O)cn1 [2-(benzofuran-2-carboxamido)-4-(6-methylpyridin-3-yl)thiophene-3-carboxylic acid]
< 10	COc1cccc2cc(-c3csc(NC(=O)c4cc5ccccc5o4)c3C(=O)O)[nH]c12 [2-(benzofuran-2-carboxamido)-4-(7-methoxy-1H-indol-2-yl)thiophene-3-carboxylic acid]
< 10	Cc1ccc(-c2csc(NC(=O)c3cc4ccccc4o3)c2C(=O)O)c2cccnc12 [2-(benzofuran-2-carboxamido)-4-(8-methylquinolin-5-yl)thiophene-3-carboxylic acid]
< 10	O=C(Nc1scc(-c2ccc3ccccc3c2)c1C(=O)O)c1cc2ccccc2o1 [2-(benzofuran-2-carboxamido)-4-(naphthalen-2-yl)thiophene-3-carboxylic acid]
< 10	O=C(Nc1scc(-c2ccc3nccnc3c2)c1C(=O)O)c1cc2ccccc2o1 [2-(benzofuran-2-carboxamido)-4-(quinoxalin-6-yl)thiophene-3-carboxylic acid]
< 10	Cc1ccc(-c2csc(NC(=O)c3ccccc3)c2C(=O)O)o1 [2-benzamido-4-(5-methylfuran-2-yl)thiophene-3-carboxylic acid]
< 10	Cc1cc(-c2csc(NC(=O)c3cccc(F)c3)c2C(=O)O)n(C)n1 [4-(1,3-dimethyl-1H-pyrazol-5-yl)-2-(3-fluorobenzamido)thiophene-3-carboxylic acid]
< 10	Cc1cc(-c2csc(NC(=O)c3snnc3C)c2C(=O)O)n(C)n1 [4-(1,3-dimethyl-1H-pyrazol-5-yl)-2-(4-methyl-1,2,3-thiadiazole-5-carboxamido)thiophene-3-carboxylic acid]
< 10	Cn1cnc(C(=O)Nc2scc(-c3cnn(-c4ccc(Cl)cc4)c3)c2C(=O)O)c1 [4-(1-(4-chlorophenyl)-1H-pyrazol-4-yl)-2-(1-methyl-1H-imidazole-4-carboxamido)thiophene-3-carboxylic acid]
